Measured values published in patent US20260232767A1, “INTERLEUKIN-23 RECEPTOR ANTAGONIST PEPTIDES FOR USE IN THE TREATMENT OF PSORIASIS” (Janssen Pharmaceutica NV, priority 2023, published 2026).

System: subjects with moderate-to-severe plaque psoriasis
Assay: Safety, adverse events, Example 2 through Week 56
Assay type: in vivo, human
Conditions: 100 mg BID
From the text: The LTE safety analysis was based on randomized participants in Example who entered the present long-term extension study and received at least one dose of study intervention (including a partial dose) during the study period.

CC(=O)NCCCC[C@@H]1NC(=O)[C@H](Cc2c[nH]c3c(C)cccc23)NC(=O)[C@H]([C@@H](C)O)NC(=O)[C@H](CC(N)=O)NC(=O)[C@@H](NC(C)=O)C(C)(C)SSC(C)(C)[C@@H](C(=O)N[C@@H](Cc2ccc(OCCN)cc2)C(=O)N[C@@H](Cc2ccc3ccccc3c2)C(=O)NC2(C(=O)N[C@@H](CCC(=O)O)C(=O)N[C@@H](CC(N)=O)C(=O)N[C@@H](Cc3cccnc3)C(=O)N(C)CC(N)=O)CCOCC2)NC1=O [IL-23 receptor antagonist peptide, Ac-[Pen]*-N-T-[W(7-Me)]-[Lys(Ac)]-[Pen]*-Phe[4-(2-aminoethoxy)]-[2-Nal]-[THP]-E-N-[3-Pal]-Sarc-NH2 (*[Pen]-[Pen]* formdisulfidebond)]
Subjects with treatment-emergent AE: Headache (Week 16-56): 0 | Subjects with treatment-emergent AE: Investigations (Week 16-56): 4 | Subjects with treatment-emergent AE: Meniscus injury (Week 16-56): 0 | Subjects with treatment-emergent AE: Sinusitis (Week 16-56): 0 | Subjects with treatment-emergent AE: Vomiting (Week 16-56): 0 | Subjects with treatment-emergent serious AE: Cardiac disorders (Week 16-56): 0 | Subjects with treatment-emergent serious AE: Cerebrovascular accident (Week 16-56): 0 | Subjects with treatment-emergent serious AE: Coronary artery disease (Week 16-56): 0 | Subjects with treatment-emergent serious AE: Diverticulitis (Week 16-56): 0 | Subjects with treatment-emergent serious AE: Foot deformity (Week 16-56): 0 | Subjects with treatment-emergent serious AE: General disorders and administration site conditions (Week 16-56): 0 | Subjects with treatment-emergent serious AE: Infections and infestations (Week 16-56): 0 | Subjects with treatment-emergent serious AE: Injury, poisoning and procedural complications (Week 16-56): 0 | Subjects with treatment-emergent serious AE: Intervertebral disc protrusion (Week 16-56): 0 | Subjects with treatment-emergent serious AE: Ligament injury (Week 16-56): 0 | Subjects with treatment-emergent serious AE: Musculoskeletal and connective tissue disorders (Week 16-56): 0 | Subjects with treatment-emergent serious AE: Nervous system disorders (Week 16-56): 0 | Subjects with treatment-emergent serious AE: Non-cardiac chest pain (Week 16-56): 0 | Subjects with treatment-emergent serious AE: Respiratory, thoracic and mediastinal disorders (Week 16-56): 0 | Subjects with treatment-emergent serious AE: Tonsillar hypertrophy (Week 16-56): 0 | Subjects with treatment-emergent serious AE: Ventricular dysfunction (Week 16-56): 0 | Acrochordon: number of subjects (through Week 56): 0 | Actinic keratosis: number of subjects (through Week 56): 0 | Alopecia: number of subjects (through Week 56): 0 | Asthenia: number of subjects (through Week 56): 0 | Asthma: number of subjects (through Week 56): 0 | Atrioventricular block first degree: number of subjects (through Week 56): 0 | Basal cell carcinoma: number of subjects (through Week 56): 0 | Blood and lymphatic system disorders: % of subjects (through Week 56): (2.4%) | Blood and lymphatic system disorders: number of subjects (through Week 56): 1 | Bronchitis chronic: number of subjects (through Week 56): 0 | Bundle branch block right: % of subjects (through Week 56): (2.4%) | Bundle branch block right: number of subjects (through Week 56): 1 | Cardiac disorders: % of subjects (through Week 56): (2.4%) | Cardiac disorders: number of subjects (through Week 56): 1 | Chills: number of subjects (through Week 56): 0 | Cholelithiasis: number of subjects (through Week 56): 0 | Chronic obstructive pulmonary disease: number of subjects (through Week 56): 0 | Coronary artery disease: number of subjects (through Week 56): 0 | Cough: % of subjects (through Week 56): (4.8%) | Cough: number of subjects (through Week 56): 2 | Decreased appetite: number of subjects (through Week 56): 0 | Depression: % of subjects (through Week 56): (2.4%) | Depression: number of subjects (through Week 56): 1 | Dermal cyst: number of subjects (through Week 56): 0 | Dermatitis acneiform: number of subjects (through Week 56): 0 | Dermatitis contact: % of subjects (through Week 56): (2.4%) | Dermatitis contact: number of subjects (through Week 56): 1 | Diabetes mellitus: number of subjects (through Week 56): 0 | Diffuse alopecia: number of subjects (through Week 56): 0 | Dysuria: number of subjects (through Week 56): 0 | Ear and labyrinth disorders: % of subjects (through Week 56): (2.4%) | Ear and labyrinth disorders: number of subjects (through Week 56): 1 | Endocrine disorders: number of subjects (through Week 56): 0 | Eye disorders: number of subjects (through Week 56): 0 | Eyelid skin dryness: number of subjects (through Week 56): 0 | Fatigue: % of subjects (through Week 56): (4.8%) | Fatigue: number of subjects (through Week 56): 2 | General disorders and administration site conditions: % of subjects (through Week 56): (9.5%) | General disorders and administration site conditions: number of subjects (through Week 56): 4 | Goiter: number of subjects (through Week 56): 0 | Haemochromatosis: number of subjects (through Week 56): 0 | Hand dermatitis: number of subjects (through Week 56): 0 | Hematuria: number of subjects (through Week 56): 0 | Hepatobiliary disorders: number of subjects (through Week 56): 0 | Hypercholesterolemia: number of subjects (through Week 56): 0 | Hyperglycemia: % of subjects (through Week 56): (4.8%) | Hyperglycemia: number of subjects (through Week 56): 2 | Hyperlipidemia: number of subjects (through Week 56): 0 | Hypertension: % of subjects (through Week 56): (4.8%) | Hypertension: number of subjects (through Week 56): 2 | Hypertransaminasemia: number of subjects (through Week 56): 0 | Hypertriglyceridemia: number of subjects (through Week 56): 0 | Hypoacusis: % of subjects (through Week 56): (2.4%) | Hypoacusis: number of subjects (through Week 56): 1 | Immune system disorders: % of subjects (through Week 56): (2.4%) | Immune system disorders: number of subjects (through Week 56): 1 | Influenza like illness: number of subjects (through Week 56): 0 | Insomnia: number of subjects (through Week 56): 0 | Intertrigo: % of subjects (through Week 56): (2.4%) | Intertrigo: number of subjects (through Week 56): 1 | Ketonuria: % of subjects (through Week 56): (2.4%) | Ketonuria: number of subjects (through Week 56): 1 | Leukocyturia: number of subjects (through Week 56): 0 | Leukopenia: number of subjects (through Week 56): 0 | Libido decreased: number of subjects (through Week 56): 0 | Liver disorder: number of subjects (through Week 56): 0 | Lymphopenia: number of subjects (through Week 56): 0 | Menopause: number of subjects (through Week 56): 0 | Metabolism and nutrition disorders: % of subjects (through Week 56): (4.8%) | Metabolism and nutrition disorders: number of subjects (through Week 56): 2 | Neoplasms benign, malignant and unspecified (incl cysts and polyps): % of subjects (through Week 56): (4.8%) | Neoplasms benign, malignant and unspecified (incl cysts and polyps): number of subjects (through Week 56): 2 | Nephrolithiasis: number of subjects (through Week 56): 0 | Neutropenia: number of subjects (through Week 56): 0 | Night sweats: number of subjects (through Week 56): 0 | Non-cardiac chest pain: number of subjects (through Week 56): 0 | Ocular cyst: number of subjects (through Week 56): 0 | Oedema peripheral: % of subjects (through Week 56): (4.8%) | Oedema peripheral: number of subjects (through Week 56): 2 | Oropharyngeal pain: number of subjects (through Week 56): 0 | Procedural pain: % of subjects (through Week 56): (2.4%) | Procedural pain: number of subjects (through Week 56): 1 | Productive cough: % of subjects (through Week 56): (2.4%) | Productive cough: number of subjects (through Week 56): 1 | Proteinuria: % of subjects (through Week 56): (2.4%) | Proteinuria: number of subjects (through Week 56): 1 | Pruritus: number of subjects (through Week 56): 0 | Psoriasis: % of subjects (through Week 56): (4.8%) | Psoriasis: number of subjects (through Week 56): 2 | Psychiatric disorders: % of subjects (through Week 56): (2.4%) | Psychiatric disorders: number of subjects (through Week 56): 1 | Pyrexia: % of subjects (through Week 56): (2.4%) | Pyrexia: number of subjects (through Week 56): 1 | Rash pruritic: number of subjects (through Week 56): 0 | Renal and urinary disorders: % of subjects (through Week 56): (4.8%) | Renal and urinary disorders: number of subjects (through Week 56): 2 | Renal mass: number of subjects (through Week 56): 0 | Respiratory, thoracic and mediastinal disorders: % of subjects (through Week 56): (9.5%) | Respiratory, thoracic and mediastinal disorders: number of subjects (through Week 56): 4 | Retinal vein occlusion: number of subjects (through Week 56): 0
